Laboratory results from patent US10351566B2, “Therapeutic compounds for pain and synthesis thereof” (priority 2015, dated 2019).
Values joined by “and” are separate entries in the source; they are usually repeats but may differ in a detail not shown here. Identical values can stand only once. Like-named read-outs stand apart in the source and are kept apart here.

Assays:
[1] = target: hERG (Homo sapiens, UniProt Q12809); test: hERG in vitro safety pharmacology
Protocol: The IC50 for hERG was greater than 10 μM. A generally accepted safety margin against hERG and other important cardiac targets is ≥30 (a safety margin is calculated as: IC50/Cmax, free or EC50/Cmax, free).

[2] = in vivo; conditions: mice; for half-life: read-out: terminal half-life (converted)
Protocol: Pharmacokinetic studies of MD-354 were performed in mice following 50 mg/kg oral and 5 mg/kg intravenous administration (FIG. 17).
The plasma concentration decreased in a multi-phasic manner to 0.76 ng/mL at 8 hours post-dose.

[3] = system: selected targets (including some important cardiovascular safety-related targets); conditions: at 10 μM
Protocol: A Cerep activity screen was conducted and was negative against the selected targets at 10 μM (including some important cardiovascular safety-related targets) for Formula 1.

[4] = in vivo; design: species or system mice; conditions: for Kp: po, 50 mg/kg, mice, oral 50 mg/kg, 5 min to 8 h
Protocol: Tissue distribution studies were conducted by administration of the compound to mice at a dose of 50 mg/kg orally and intravenously. Plasma and tissue samples were collected at various times from 5 min to 8 h. The tissue-to-plasma concentration ratios measured after oral dosing were: 0.6 (range: 0.3-1.1, brain), 3.2 (range: 1.9-5.0, spinal cord), 6.5 (range: 0.9-10.3, liver), 24.0 (range: 5.1-59.9, lung), 6.6 (range: 1.2-14.9, heart), 16.9 (range: 4.3-26.8, kidney), 77.5 (range: 11.5-341, spleen), 29.2 (range: 6.3-50.2, cecum), 67.4 (range: 11.6-326, colon), 5.2 (range: 2.1-8.0, testes). The concentration-time profiles of the compound in these tissues generally followed those in plasma. The tissue-to-plasma concentration ratios in these selected tissues are generally within the normal ranges of the marketed drugs.
There are complex equilibria between the compound concentrations in blood, CSF and spinal cord. A high concentration in the CSF would yield a large concentration in the spinal cord. Since Formula 1 is a Pgp substrate and highly tissue-bound, its higher concentrations in the spinal cord tissue compared to the brain tissue are not surprising (Table 2).

[5] = oral, two additional sets of data, listed as 354
[6] = Plasma, second block of the table, route not given, Mean
[7] = mouse, in vivo, Brain, second block of the table, route not given, Mean
[8] = mouse, in vivo, Plasma, second block of the table, route not given, Mean
[9] = mouse, in vivo, Spinal Cord, second block of the table, route not given, Mean

Chain of hERG (Q12809 whole entry): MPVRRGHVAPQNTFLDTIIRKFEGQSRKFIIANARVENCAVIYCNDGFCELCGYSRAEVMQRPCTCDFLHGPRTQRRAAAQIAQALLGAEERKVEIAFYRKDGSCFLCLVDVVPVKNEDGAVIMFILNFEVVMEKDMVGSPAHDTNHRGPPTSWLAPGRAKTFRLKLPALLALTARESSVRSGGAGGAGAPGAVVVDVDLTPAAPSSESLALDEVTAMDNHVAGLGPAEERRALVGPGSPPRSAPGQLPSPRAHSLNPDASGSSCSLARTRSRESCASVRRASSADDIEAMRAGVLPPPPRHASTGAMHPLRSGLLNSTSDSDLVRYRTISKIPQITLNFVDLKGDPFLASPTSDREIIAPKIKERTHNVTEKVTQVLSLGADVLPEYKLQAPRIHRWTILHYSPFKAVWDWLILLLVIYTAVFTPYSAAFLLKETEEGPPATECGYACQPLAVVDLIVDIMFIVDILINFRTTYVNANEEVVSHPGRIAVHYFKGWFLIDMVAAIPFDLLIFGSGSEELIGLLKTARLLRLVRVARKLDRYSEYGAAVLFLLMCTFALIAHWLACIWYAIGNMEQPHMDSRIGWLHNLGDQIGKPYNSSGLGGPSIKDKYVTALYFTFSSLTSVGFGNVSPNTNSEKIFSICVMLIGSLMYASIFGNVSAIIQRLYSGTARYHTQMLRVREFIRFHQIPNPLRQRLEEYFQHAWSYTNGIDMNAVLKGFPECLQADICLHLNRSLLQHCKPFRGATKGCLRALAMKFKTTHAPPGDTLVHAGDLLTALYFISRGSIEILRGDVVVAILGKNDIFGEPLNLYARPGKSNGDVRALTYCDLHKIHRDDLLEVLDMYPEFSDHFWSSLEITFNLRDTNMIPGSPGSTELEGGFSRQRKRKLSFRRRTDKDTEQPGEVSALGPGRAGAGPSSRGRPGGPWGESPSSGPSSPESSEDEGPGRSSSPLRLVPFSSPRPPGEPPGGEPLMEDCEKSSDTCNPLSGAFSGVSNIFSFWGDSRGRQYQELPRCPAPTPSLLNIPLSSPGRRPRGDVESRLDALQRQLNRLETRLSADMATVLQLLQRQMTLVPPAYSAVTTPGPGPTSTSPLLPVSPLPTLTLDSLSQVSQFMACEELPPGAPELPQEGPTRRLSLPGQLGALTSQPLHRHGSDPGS

## CC(C)(C)C(=O)O[C@@H]1[C@@H]2[C@H]3C[C@H](C[C@@H]1N3Cc1ccccn1)CN2C(=O)CC(F)(F)F (relative stereo) [Formula 1, (2S*,3S*,3aS*,6R*,7aR*)-1-(pyridin-2-ylmethyl)-4-(3,3,3-trifluoropropanoyl)octahydro-1H-2,6-methanopyrrolo[3,2-b]pyridin-3-yl pivalate]
[1]
  IC50: > 10 µM
[2]; intravenous 5 mg/kg
  plasma concentration at 8 hours post-dose: 6.74 ng/mL
[2]; oral 50 mg/kg
  plasma concentration at 8 hours post-dose: 0.76 ng/mL
  time to peak plasma concentration: ≤ 5 min
[2]; oral, two additional sets of data
  time to peak plasma concentration: ≤ 5 min
[2]; [5]
  oral bioavailability: 14.7%
  peak plasma concentration: 3157 ng/mL and 3001 ng/mL
  plasma concentration at 8 hours post-administration: 8.4 ng/mL and 11.4 ng/mL
  terminal half-life: 1.25 h
[2]; mouse, in vivo, iv, 5 mg/kg, intravenous 5 mg/kg, excluding the 8 h time point
  half-life: 21 min
[2]; mouse, in vivo, oral 50 mg/kg vs intravenous 5 mg/kg, read-out: absolute oral bioavailability
  bioavailability: 10.5%
[2]; mouse, in vivo, po, 50 mg/kg, oral 50 mg/kg
  half-life: 51 min
[2]; mouse, in vivo, po, oral, two additional sets of data, read-out: oral bioavailability
  bioavailability: 14.1%
[2]; mouse, in vivo, po, oral, two additional sets of data
  half-life: 71.4 min
[2]; mouse, in vivo, intravenous 5 mg/kg, read-out: initial plasma concentration (C0)
  C0: 7940 ng/mL
[2]; mouse, in vivo, intravenous 5 mg/kg, read-out: steady-state volume of distribution (Vss)
  Vd: 1.08 L/kg
[2]; mouse, in vivo, intravenous 5 mg/kg, read-out: systemic plasma clearance (CLp)
  clearance: 46.1 mL/min/kg
[2]; mouse, in vivo, oral 50 mg/kg, read-out: peak plasma concentration (Cmax)
  Cmax: 1930 ng/mL
[3]
  Cerep activity screen result: negative
[4]; Brain, second block of the table, route not given, Mean
  HL_Lambda_z: 0.74 h
[4]; Plasma, SC, Mean
  Cl_F_obs: 120.292 mL/min/kg
  HL_Lambda_z: 0.37 h
  Vz_F_obs: 3847.83 mL/kg
[4]; [6]
  Cl_F_obs: 672.2167 mL/min/kg
  HL_Lambda_z: 1.20 h
  Vz_F_obs: 72161.50 mL/kg
[4]; Spinal Cord, SC, Mean
  HL_Lambda_z: 0.53 h
[4]; Spinal Cord, second block of the table, route not given, Mean
  HL_Lambda_z: 1.56 h
[4]; male, mouse, in vivo, read-out: tissue-to-plasma concentration ratio, testes
  Kp: 5.2
[4]; male, mouse, in vivo, read-out: tissue-to-plasma concentration ratio, testes, range
  Kp: 2.1 to 8
[4]; [7]
  AUC(0-t): 2770 ng·h/mL
  Cmax: 6750 ng/mL
  Tmax: 4.8 min
[4]; [8]
  AUC(0-t): 2590 ng·h/mL
  Cmax: 3080 ng/mL
[4]; mouse, in vivo, Plasma, second block of the table, route not given, Mean, read-out: AUCINF_obs
  AUC(0-inf): 2610 ng·h/mL
[4]; [9]
  AUC(0-t): 15500 ng·h/mL
  Cmax: 30000 ng/mL
[4]; mouse, in vivo, read-out: tissue-to-plasma concentration ratio, brain
  Kp: 0.6
[4]; mouse, in vivo, read-out: tissue-to-plasma concentration ratio, brain, range
  Kp: 0.3 to 1.1
[4]; mouse, in vivo, read-out: tissue-to-plasma concentration ratio, cecum
  Kp: 29.2
[4]; mouse, in vivo, read-out: tissue-to-plasma concentration ratio, cecum, range
  Kp: 6.3 to 50.2
[4]; mouse, in vivo, read-out: tissue-to-plasma concentration ratio, colon
  Kp: 67.4
[4]; mouse, in vivo, read-out: tissue-to-plasma concentration ratio, colon, range
  Kp: 11.6 to 326
[4]; mouse, in vivo, read-out: tissue-to-plasma concentration ratio, heart
  Kp: 6.6
[4]; mouse, in vivo, read-out: tissue-to-plasma concentration ratio, heart, range
  Kp: 1.2 to 14.9
[4]; mouse, in vivo, read-out: tissue-to-plasma concentration ratio, kidney
  Kp: 16.9
[4]; mouse, in vivo, read-out: tissue-to-plasma concentration ratio, kidney, range
  Kp: 4.3 to 26.8
[4]; mouse, in vivo, read-out: tissue-to-plasma concentration ratio, liver
  Kp: 6.5
[4]; mouse, in vivo, read-out: tissue-to-plasma concentration ratio, liver, range
  Kp: 0.9 to 10.3
[4]; mouse, in vivo, read-out: tissue-to-plasma concentration ratio, lung
  Kp: 24
[4]; mouse, in vivo, read-out: tissue-to-plasma concentration ratio, lung, range
  Kp: 5.1 to 59.9
